Results taken from the NIST ThermoML archive (doi:10.1016/j.jct.2016.11.010).

Test: mn = molality of the nth substance listed, in mol/kg
Conditions: 100 kPa, Liquid; for speed of sound: Frequency=3 MHz, Sing-around technique in a fixed-path interferometer; for mass density: Vibrating tube method

O=C([O-])CC(O)(CC(=O)[O-])C(=O)[O-].[Li+].[Li+].[Li+] [trilithium citrate] + O
Conditions	mass density, 288.15 K [kg/m3]	mass density, 298.15 K [kg/m3]	mass density, 308.15 K [kg/m3]	mass density, 318.15 K [kg/m3]	speed of sound, 288.15 K [m/s]	speed of sound, 298.15 K [m/s]	speed of sound, 308.15 K [m/s]	speed of sound, 318.15 K [m/s]
m1 = 0.2	1027.57	1025.15	1021.94	1017.98	1509.4	1536	1556.2	1570.5
m1 = 0.4	1052.95	1050.23	1046.82	1042.77	1548.6	1572.7	1590.4	1602.2
m1 = 0.6	1078.48	1075.51	1071.94	1067.78	1589.2	1610.3	1626	1636.1
